# Test results reported in paper PMC5601071 (Frontiers in Pharmacology, 2017).
# Residues, ends and D or L forms follow the SMILES beside them. *: point of attachment. FITC = O=C1OC2(c3ccc(O)cc3Oc3cc(O)ccc32)c2ccc(NC(=S)*)cc21; 5FAM = O=C1OC2(c3ccc(O)cc3Oc3cc(O)ccc32)c2ccc(C(=O)*)cc21; Biotin = O=C1N[C@H]2[C@H](CS[C@H]2CCCCC(=O)*)N1
# System: not listed separately
# Test: In vitro degradation / half-life time in serum
# Assay type: in vitro ADME, mouse
# Details: spadin incubated with mouse serum; HPLC peaks identified by mass spectroscopy
# Method: […] Incubations were stopped by direct acidification (5 μl of 2.5 M HCl), loaded in C-18 sepack cartridges, lyophilized, resuspended in 20% acetonitrile before loading onto HPLC for analysis of PE degradation/stability. Elutions of HPLC products were carried out by means of a 50-min linear gradient of acetonitrile from 20 to 70% at a flow rate of 1 ml/min. The amount of the intact PE for each incubation time was expressed as the percent of the initial amount of spadin.
row,Compound,time of maximal appearance of degradation peak in serum
1,CC[C@H](C)[C@H](NC(=O)[C@@H]1CCCN1C(=O)CNC(=O)[C@H](CO)NC(=O)[C@H](Cc1c[nH]c2ccccc12)NC(=O)[C@H](CCCNC(=N)N)NC(=O)[C@@H]1CCCN1C(=O)[C@@H](N)CC(C)C)C(=O)NCC(=O)N[C@H](C(=O)N[C@@H](CO)C(=O)N[C@@H](Cc1c[nH]c2ccccc12)C(=O)O)C(C)C [PE 14-25] (H-LPRWSGPIGVSW-OH),15 min
2,CC[C@H](C)[C@H](NC(=O)[C@@H]1CCCN1C(=O)CNC(=O)[C@H](CO)NC(=O)[C@H](Cc1c[nH]c2ccccc12)NC(=O)[C@H](CCCNC(=N)N)NC(=O)[C@@H]1CCCN1C(=O)[C@H](CC(C)C)NC(=O)[C@@H]1CCCN1C(=O)[C@H](C)N)C(=O)NCC(=O)N[C@H](C(=O)N[C@@H](CO)C(=O)N[C@@H](Cc1c[nH]c2ccccc12)C(=O)NCC(=O)N[C@@H](CC(C)C)C(=O)O)C(C)C [PE 12-27] (H-APLPRWSGPIGVSWGL-OH),30 min

# Target: T1, TREK-1 channel (hTREK-1/HEK cells) (Homo sapiens, UniProt O95069)
# T1 construct: expressed in transfected cells
# T1 sequence (O95069 1-426): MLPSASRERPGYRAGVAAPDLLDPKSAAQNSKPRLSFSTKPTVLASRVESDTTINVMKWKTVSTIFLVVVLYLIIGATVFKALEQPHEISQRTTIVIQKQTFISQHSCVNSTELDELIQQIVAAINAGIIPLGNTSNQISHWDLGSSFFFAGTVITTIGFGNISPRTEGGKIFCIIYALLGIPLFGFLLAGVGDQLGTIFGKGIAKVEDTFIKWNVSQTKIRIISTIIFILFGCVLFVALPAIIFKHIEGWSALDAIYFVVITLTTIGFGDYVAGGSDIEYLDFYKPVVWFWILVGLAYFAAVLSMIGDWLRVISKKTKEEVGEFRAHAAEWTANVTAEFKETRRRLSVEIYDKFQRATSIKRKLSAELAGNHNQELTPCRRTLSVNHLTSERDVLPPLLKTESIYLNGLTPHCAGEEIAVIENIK
# Test: TREK-1 current inhibition, whole-cell patch-clamp on hTREK-1/HEK cell line
# Assay type: cell-based
# Details: HEK293, peptide 100 nM; TREK-1 first activated with 10 μM arachidonic acid (AA); current density at 0 mV; hTREK-1/HEK cells; mean ± SEM, n = cells; read-out: % of TREK-1 inhibition
# Method: The human TREK-1/HEK cell line (Moha ou Maati et al., [2011]) and the native HEK293 cell line were maintained in Dulbecco's Modified Eagle's Medium (DMEM) supplemented with 10% (v/v) heat-inactivated fetal bovine serum, 1% (v/v) penicillin-streptomycin, 1% Glutamax. For the hTREK-1/HEK cells, 0.5 mg/ml G418 were added to the medium.
# Cells were incubated in a humidified atmosphere containing 5% CO2. For electrophysiological measurements, cells were plated at a density of 20,000 cells per 35 mm dish.
# Cells from the hTREK-1/HEK cell line were seeded at a density of 20,000 cells/35 mm dish. Electrophysiological recordings were performed 24–48 h after plating using the whole-cell configuration of patch-clamp technique. TREK-1 currents (ITREK−1) were recorded using RK400 patch-clamp amplifier (Axon Instrument, USA). They were low-pass filtered at 3 kHz and digitized at 10 kHz using a 12-bit analog-to-digital converter digidata (1322 series, Axon Instrument, USA). ITREK−1amplitudes were expressed as current densities [current amplitude (pA)/membrane capacitance (pF)]. The results were expressed as mean ± SEM (standard error of the mean).
# Cells were continuously perfused using an external bath solution containing in mM: 150 NaCl, 5 KCl, 3 MgCl2, 1 CaCl2, and 10 HEPES. The bath solution was initially adjusted to pH 7.4 with NaOH. The intra-pipette solution contained in mM: 155 KCl, 3 MgCl2, 5 EGTA, and 10 HEPES adjusted to pH 7.2 with KOH. In order to measure ITREK−1, a cocktail of potassium channel blockers was added to the bath solution. This cocktail contained: 3 mM 4-AP (4-aminopyridine), 10 mM TEA (tetraethylammonium), 10 μM Glibenclamide, 100 nM Apamin, and 50 nM Charybdotoxin. Data acquisition was carried out using a computer (Dell Pentium) with pClamp software (Axon Instrument, USA). Whole-cell currents were generated by running a pulse or ramp protocol every 5 s from −100 to +60 mV with a holding potential maintained at −80 mV. To evaluate the inhibitory effect on TREK-1 channels of shortened spadin analogs compared with spadin, cells were first activated by 10 μM arachidonic acid (AA). Dose-response curves were realized to compare spadin-analog effects with spadin using Origin 8.6 (Northampton, MA, USA).
# Patch-clamp recording data were analyzed using Clampfit (Molecular Devices, USA). I = f(V) curves were obtained from −100 to +60 mV ramp. Data were presented as mean ± SEM.
row,Compound,inhibition at 0.1 µM
1,COC(=O)[C@H](CCCNC(=N)N)NC(=O)[C@H](CC(C)C)NC(=O)CNC(=O)[C@H](Cc1c[nH]c2ccccc12)NC(=O)[C@H](CO)NC(=O)[C@@H](NC(=O)CN)C(C)C [PE 22-28-O-Methyl] (H-GVSWGLR-OMe),43 ± 13.5%
2,CC(C)C[C@H](NC(=O)CNC(=O)[C@H](Cc1c[nH]c2ccccc12)NC(=O)[C@H](CO)NC(=O)[C@@H](NC(=O)CNC(=S)Nc1ccc2c(c1)C(=O)OC21c2ccc(O)cc2Oc2cc(O)ccc21)C(C)C)C(=O)N[C@@H](CCCNC(=N)N)C(=O)O [FITC-PE 22-28] ({FITC}-GVSWGLR-OH),22.1 ± 12.6%
3,CC(C)[C@H](NC(=O)CN)C(=O)N[C@@H](CO)C(=O)N[C@@H](Cc1c[nH]c2ccccc12)C(=O)O [PE 22-25] (H-GVSW-OH),36 ± 17.5%
4,CC(C)C[C@H](NC(=O)CNC(=O)[C@H](Cc1c[nH]c2ccccc12)NC(=O)[C@H](CO)NC(=O)[C@@H](NC(=O)CN)C(C)C)C(=O)O [PE 22-27] (H-GVSWGL-OH),25.7 ± 20%
5,CC(C)C[C@H](NC(=O)CNC(=O)[C@H](Cc1c[nH]c2ccccc12)NC(=O)[C@H](CO)NC(=O)[C@@H](NC(=O)CNC(=O)CCCC[C@@H]1SC[C@@H]2NC(=O)N[C@@H]21)C(C)C)C(=O)N[C@@H](CCCNC(=N)N)C(=O)O [Biotinylated-PE 22-28] (Biotin-GVSWGLR-OH),53 ± 6.42%
6,CC(C)C[C@H](NC(=O)CNC(=O)[C@H](Cc1c[nH]c2ccccc12)NC(=O)[C@H](CO)NC(=O)[C@@H](NC(=O)CNC(=O)c1ccc2c(c1)C(=O)OC21c2ccc(O)cc2Oc2cc(O)ccc21)C(C)C)C(=O)N[C@@H](CCCNC(=N)N)C(=O)O [5'FAM-PE 22-28] (5FAM-GVSWGLR-OH),6.63 ± 7.07%
7,CC[C@H](C)[C@H](NC(=O)[C@@H]1CCCN1C(=O)CCCC[C@@H]1SC[C@@H]2NC(=O)N[C@@H]21)C(=O)NCC(=O)N[C@H](C(=O)N[C@@H](CO)C(=O)N[C@@H](Cc1c[nH]c2ccccc12)C(=O)NCC(=O)N[C@@H](CC(C)C)C(=O)N[C@@H](CCCNC(=N)N)C(=O)O)C(C)C [Biotinylated-PI-PE 22-28] (Biotin-PIGVSWGLR-OH),49.1 ± 7.45%
8,CC[C@H](C)[C@H](NC(=O)[C@@H]1CCCN1C(=O)CNC(=O)[C@H](CO)NC(=O)[C@H](Cc1c[nH]c2ccccc12)NC(=O)[C@H](CCCNC(=N)N)NC(=O)[C@@H]1CCCN1C(=O)[C@@H](N)CC(C)C)C(=O)NCC(=O)N[C@H](C(=O)N[C@@H](CO)C(=O)N[C@@H](Cc1c[nH]c2ccccc12)C(=O)O)C(C)C [PE 14-25] (H-LPRWSGPIGVSW-OH),-14.7 ± 10.6%
9,CC(C)C[C@H](NC(=O)CNC(=O)[C@H](Cc1c[nH]c2ccccc12)NC(=O)[C@H](CO)NC(=O)[C@@H](NC(=O)[C@H](C)NC(=O)CCCC[C@@H]1SC[C@@H]2NC(=O)N[C@@H]21)C(C)C)C(=O)N[C@@H](CCCNC(=N)N)C(=O)O [Biotinylated G/A-PE 22-28] (Biotin-AVSWGLR-OH),46.1 ± 7.74%
10,CC[C@H](C)[C@H](NC(=O)[C@@H]1CCCN1C(=O)CNC(=O)[C@H](CO)NC(=O)[C@H](Cc1c[nH]c2ccccc12)NC(=O)[C@H](CCCNC(=N)N)NC(=O)[C@@H]1CCCN1C(=O)[C@H](CC(C)C)NC(=O)[C@@H]1CCCN1C(=O)[C@H](C)N)C(=O)NCC(=O)N[C@H](C(=O)N[C@@H](CO)C(=O)N[C@@H](Cc1c[nH]c2ccccc12)C(=O)NCC(=O)N[C@@H](CC(C)C)C(=O)O)C(C)C [PE 12-27] (H-APLPRWSGPIGVSWGL-OH),28.4 ± 9.9%

# Same assay, conditions: peptide 100 nM after 10 μM AA; n = 8, p = 0.09
row,Compound,current density measured at 0 mV compared with AA activity alone (100%)
1,CC[C@H](C)[C@H](NC(=O)[C@@H]1CCCN1C(=O)CNC(=O)[C@H](CO)NC(=O)[C@H](Cc1c[nH]c2ccccc12)NC(=O)[C@H](CCCNC(=N)N)NC(=O)[C@@H]1CCCN1C(=O)[C@@H](N)CC(C)C)C(=O)NCC(=O)N[C@H](C(=O)N[C@@H](CO)C(=O)N[C@@H](Cc1c[nH]c2ccccc12)C(=O)O)C(C)C [PE 14-25] (H-LPRWSGPIGVSW-OH),114.7 ± 10.6%
